In one data set the test system is KBM7 cells. The experiment in a line: Dose-ranging cellular viability assays in neddylation-impaired isogenic KBM7 cells. It is filed as cell-based, human. As to the method:
KBM7 cells mutated for five core genes were isolated and the underlying CRISPR-induced mutations were truncations leading to full knockouts (CAND1) or hypomorphic alleles (UBE2M, COPS8, COPS7B, GPS1). […] The observable shift in efficacy was at least 10-fold and up to 1000-fold, thus providing excellent signal to noise ratios. In sum, neddylation-impaired (NEDD^mut) cell line can be applied to find novel, yet uncharacterized MGs.
This is further exemplified when said cells are treated with the compound CC-885 (a molecular glue that reprograms the substrate receptor cereblon/CRBN to degrade GSPT1), or the PROTAC® compound THAL-SNS-032 (known to reprogram the substrate receptor cereblon/CRBN to degrade the cyclin dependent kinase 9, CDK9) (both see appended FIG. 22).
However, not for every cullin RING ligase (CRL), modifications of the COP9 signalosome subunit 8 (COPS8) or CAND1 (Cullin-associated NEDD8-dissociated protein 1; a substrate receptor exchange factor) lead to an ensuing destabilization via auto-degradation. An example for this is the substrate receptor VHL(von-Hippel-Lindau), which is part of the CRL2^VHL ligase complex. […] Therefore, measuring differential sensitivity of cells manipulated to contain altered neddylation states to a molecular glue/PROTAC® compound is a feasible surrogate to measure whether the substrate receptor that is reprogrammed by said molecular glue/PROTAC® undergoes destabilization/auto-degradation upon altering the neddylation states.

Data set [1] deals with T1, RBM39 (Homo sapiens, UniProt Q14498+Q66K64). The experiment in a line: Western blot of RBM39 levels in 293T DCAF15 KO versus DCAF15-reconstituted cells. Format: cell-based. To be noted: 293T cells reconstituted with tagged DCAF15, 10 h treatment. Set-up: endogenous in cells; host or cells: 293T DCAF15 KO and 293T reconstituted with tagged DCAF15. As to the method:
(§1) Given the structural similarity to indisulam, it was assayed if the two new test compounds would similarly lead to the degradation of RBM39 in a DCAF15-dependent manner. Towards that end, their effect on RBM39 levels in wildype cells as well as cells deficient for DCAF15 levels was tested. KBM7 (WT or knockout, FIG. 20) as well as 293T cells (DCAF15-HiBit overexpression vs knockout, see FIG. 21) were tested in various conditions of dCEMM.1 and/or dCEMM.2, comparing their effect to indisulam.
In general terms: A western blot detects proteins with antibodies after separation by electrophoresis.

Data set [2] addresses T2, DCAF15 (Homo sapiens, UniProt Q66K64).
T2 construct: expressed in transfected cells
Briefly: High-throughput screen for DCAF15 stabilization in 293T cells expressing DCAF15 HiBit fusion. It is filed as cell-based. As to conditions: 10 uM, 384 well, measurements every 120 minutes. The source says: Subsequently, in this context, the E3 ligase substrate receptor (SR) stabilization approach was employed in order to identify novel chemical matter that can bind and chemically re-program the substrate receptor DCAF15. To be able to screen a collection of around 8000 small-molecules, a cellular system was developed that enabled monitoring of DCAF15 levels in live cells in multi-well format. To that end, DCAF15 was first knocked out in 293T cells via CRISPR/Cas9 technology. Then, DCAF15 was stably expressed as a HiBit® fusion protein in these cells. After further transducing these cells with LgBit, this allowed live-cell tracing of DCAF15 levels in 384 well format by measuring bioluminescence (FIG. 18). In brief, cells were seeded at a concentration of 250′000 cells/ml in DMEM+10% FCS+25 mM Hepes. The luciferase substrate Endurazine was added at concentrations recommended by the manufacturer. Small-molecules were added at a concentration of 10 uM, and their effect on DCAF15 levels was assayed by continuous bioluminescent imaging (measurements were taken every 120 minutes). […] The known DCAF15 molecular glue indisulam (see FIG. 7) was used as a positive control. In brief, indisulam is known to act as a DCAF15-dependent molecular glue that binds DCAF15 and induced proximity between DCAF15 and RBM39, leading to the degradation of the latter.
Background: HiBiT is a short tag that completes a luciferase, so light tracks the accessible tagged protein.

The target of data set [3] is T2, DCAF15. The experiment in a line: DCAF15 HiBit/LgBit luciferase assay (knock-in or ectopic, live-cell or lytic detection). It is filed as cell-based. As to the method:
Generation of HiBit DCAF15 knock-in cells: HEK293t WT cells at 70-80% confluency were transiently transfected in a 6 well plate with a mix of 3 ug Cas9-sgRNA vector (PX458, addgene #48138, containing sgRNA [NT]), 6 ug of single stranded oligonucleotide donor (ssOND, 20 bp homology flanking the cut site) and 3.6 ug polyethylenimine (FIGS. 10 and 12). 72 hrs post-transfection cells were sorted (SH800 Cell sorter, SONY) for GFP positive cells and recovered for 24 hrs in media. Cells were subsequently seeded at a limiting dilution to generate single clones. Clones were tested after outgrowth for HiBit expression by seeding clonal cells in a black clear bottom 384 well plate and adding Nano-Glo HiBit Lytic buffer (Promega, N3030) reconstituted with recombinant LgBit and Nano-Glo HiBit Lytic Substrate in a 1:1 ratio. HiBit-expressing clones were validated by western blotting and detection of luciferase signal (Promega, N2410) at the correct size. For live cell luciferase detection (FIGS. 11 and 13) 7000 HEK293t cells with a HiBit knock-in at the N-terminus of DCAF15 and stable ectopic expression of LgBit were seeded in 10 uL per well into a black, clear-bottom 384 well plate (Corning, #3764) and incubated over night. 20 uL of media containing 1× Endurazine (Promega, N2570) was added to each well and incubated for 1 hour followed by a baseline luciferase measurement using an EnVision plate reader (Perkin Elmer). Subsequently CSN5i-3 or an equal volume of DMSO was added in 10 uL of media to a final concentration of 500 nM in the assay volume of 40 uL. Luciferase signal was measured hourly for 24 hours. For lytic HiBit detection (FIGS. 11 and 14) 10000 cells were seeded in 10 uL per well into a black clear bottom 384 well plate. After recovery cells were treated by addition of iCSN5-3 or an equal volume of DMSO in 10 uL of media to the cells. After the indicated treatment time cells were lysed by adding 20 uL Nano-Glo HiBit Lytic buffer (Promega, N3030) reconstituted with recombinant LgBit and Nano-Glo HiBit Lytic Substrate. Luciferase signal of each well was normalized to the mean DMSO luciferase signal yielding fold-change over DMSO. Luciferase signal was detected essentially as stated for FIG. 13 with the exception that indisulam (Sigma-Aldrich, SML1225) was added together with CSN5i-3 to cells in 10 uL of media to reach the indicated final concentration (FIG. 15). Luciferase signal of each well and timepoint was normalized to the mean DMSO luciferase signal yielding fold-change over DMSO. […] Luciferase signal was detected essentially as stated for FIG. 15 with the exception that indisulam and dCEMM.1 were added together with iCSN5-3 to cells in the 10 uL treatment to a final concertation of 10 uM (FIG. 17). Luciferase signal of each well and timepoint was normalized to the mean DMSO luciferase signal yielding fold-change over DMSO.

The target of data set [4] is T1, RBM39. Briefly: Western blot of RBM39 levels in KBM7 WT versus DCAF15-deficient cells. To be noted: 12 or 16 h treatment. Set-up: endogenous in cells. It is filed as cell-based. As to the method: as §1

Entries after “also recorded” stand apart in the source; their conditions may differ.

We go through one molecule from patent publication US20210293788A1, “METHOD FOR IDENTIFYING A CHEMICAL COMPOUND OR AGENT INDUCING UBIQUITINATION OF A PROTEIN OF INTEREST” (CeMM - Forschungszentrum fur Molekulare Medizin GmbH, priority 2018, published 2021).

T2 sequence (Q66K64 whole entry): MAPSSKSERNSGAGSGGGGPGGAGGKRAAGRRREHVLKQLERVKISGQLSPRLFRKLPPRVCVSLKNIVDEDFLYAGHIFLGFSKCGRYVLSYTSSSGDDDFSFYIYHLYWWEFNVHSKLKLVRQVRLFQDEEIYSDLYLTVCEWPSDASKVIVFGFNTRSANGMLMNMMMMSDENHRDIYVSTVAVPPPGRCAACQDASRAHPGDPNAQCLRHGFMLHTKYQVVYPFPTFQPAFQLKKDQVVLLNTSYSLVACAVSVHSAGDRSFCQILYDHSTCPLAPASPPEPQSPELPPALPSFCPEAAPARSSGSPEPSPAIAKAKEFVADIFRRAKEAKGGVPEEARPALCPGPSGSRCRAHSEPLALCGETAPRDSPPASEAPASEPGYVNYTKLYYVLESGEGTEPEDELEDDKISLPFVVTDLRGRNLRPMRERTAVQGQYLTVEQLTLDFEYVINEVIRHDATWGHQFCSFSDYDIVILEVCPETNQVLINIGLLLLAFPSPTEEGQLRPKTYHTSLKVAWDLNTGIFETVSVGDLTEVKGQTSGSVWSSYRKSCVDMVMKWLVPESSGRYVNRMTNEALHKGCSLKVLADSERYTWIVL

As to `NS(=O)(=O)c1ccc(S(=O)(=O)Nc2cccc3c(Cl)c[nH]c23)cc1` [indisulam], the “Cytotoxic activity / sensitivity in COPS8- or CAND1-modified cells” value with KBM7 cells (KBM7 cells modified in COPS8 or CAND1 versus non-modified control) was “resistance to indisulam in both genetic backgrounds; also recorded: reduced activity”. The “Resistance of mutant cells in cellular viability assay” value with KBM7 cells (KBM7 cells mutated in CAND1, UBE2M, COPS8, COPS7B or GPS1 versus wild type) is reported as “caused resistance”. For the same molecule, the “RBM39 levels (western blot)” value on RBM39 [1] and at RBM39 [4] was “destabilization” throughout. Further, the “DCAF15 stabilization (relative luciferase signal over time)” value on DCAF15 [2] is reported as “pronounced stabilization of DCAF15 over time; also recorded: identified as positive hits; also recorded: significant stabilization of DCAF15 over time”. Besides, the “DCAF15 re-stabilization (luciferase, fold-change over DMSO)” value at DCAF15 [3] (HiBit knock-in live cells, added together with CSN5i-3 (FIG. 15)) was “rescues DCAF15 from auto-degradation; also recorded: DCAF15 re-stabilization”; on DCAF15 [3] (live cells, 10 uM, added together with CSN5i-3 (FIG. 17)) it was “rescues DCAF15 from auto-degradation; also recorded: DCAF15 re-stabilization”.
